Test results published in ChEMBL document CHEMBL3608249, “Indolylpiperidine derivatives as potent and selective α1B adrenoceptor antagonists” (Bioorg Med Chem Lett, 2015).

Experiments:
[1] = target: T1, Alpha-1A adrenergic receptor (Rattus norvegicus, UniProt P43140); experiment: Displacement of [3H]prazosin from alpha1A adrenoceptor in rat submaxillary gland membrane; type: cell membranes
T1 sequence (P43140 whole entry): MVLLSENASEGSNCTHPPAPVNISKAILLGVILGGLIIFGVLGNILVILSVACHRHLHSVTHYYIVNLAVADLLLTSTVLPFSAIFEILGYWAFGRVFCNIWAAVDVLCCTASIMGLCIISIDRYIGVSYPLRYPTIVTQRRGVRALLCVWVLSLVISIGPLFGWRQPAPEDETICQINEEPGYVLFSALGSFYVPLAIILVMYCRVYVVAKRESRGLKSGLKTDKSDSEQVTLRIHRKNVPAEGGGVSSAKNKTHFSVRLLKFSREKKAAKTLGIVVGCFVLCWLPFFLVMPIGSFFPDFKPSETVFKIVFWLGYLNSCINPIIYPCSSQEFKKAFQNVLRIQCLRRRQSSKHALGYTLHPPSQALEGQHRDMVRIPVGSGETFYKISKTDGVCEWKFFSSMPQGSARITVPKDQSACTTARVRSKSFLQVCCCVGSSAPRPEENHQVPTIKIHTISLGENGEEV

[2] = target: T2, Alpha-1B adrenergic receptor (Rattus norvegicus, UniProt P15823); experiment: Displacement of [3H]prazosin from alpha1B adrenoceptor in rat liver membranes; type: cell membranes, Membrane
T2 sequence (P15823 whole entry): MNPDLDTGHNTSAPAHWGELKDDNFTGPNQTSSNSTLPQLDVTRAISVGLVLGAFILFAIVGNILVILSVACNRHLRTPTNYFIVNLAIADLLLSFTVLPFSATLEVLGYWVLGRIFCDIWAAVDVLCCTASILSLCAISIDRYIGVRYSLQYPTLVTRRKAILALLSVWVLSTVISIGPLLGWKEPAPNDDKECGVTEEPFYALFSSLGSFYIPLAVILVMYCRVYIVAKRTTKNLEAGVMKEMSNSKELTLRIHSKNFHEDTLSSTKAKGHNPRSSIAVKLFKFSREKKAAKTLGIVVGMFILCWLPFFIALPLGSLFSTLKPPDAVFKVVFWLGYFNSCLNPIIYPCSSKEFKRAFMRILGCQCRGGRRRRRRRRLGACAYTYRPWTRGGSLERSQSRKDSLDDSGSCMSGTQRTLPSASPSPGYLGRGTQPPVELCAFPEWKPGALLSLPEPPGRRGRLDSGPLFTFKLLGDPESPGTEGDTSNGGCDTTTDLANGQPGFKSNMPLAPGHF

[3] = target: T3, Alpha-1D adrenergic receptor (Homo sapiens, UniProt P25100); experiment: Binding affinity to human recombinant alpha1D adrenoceptor
T3 sequence (P25100 whole entry): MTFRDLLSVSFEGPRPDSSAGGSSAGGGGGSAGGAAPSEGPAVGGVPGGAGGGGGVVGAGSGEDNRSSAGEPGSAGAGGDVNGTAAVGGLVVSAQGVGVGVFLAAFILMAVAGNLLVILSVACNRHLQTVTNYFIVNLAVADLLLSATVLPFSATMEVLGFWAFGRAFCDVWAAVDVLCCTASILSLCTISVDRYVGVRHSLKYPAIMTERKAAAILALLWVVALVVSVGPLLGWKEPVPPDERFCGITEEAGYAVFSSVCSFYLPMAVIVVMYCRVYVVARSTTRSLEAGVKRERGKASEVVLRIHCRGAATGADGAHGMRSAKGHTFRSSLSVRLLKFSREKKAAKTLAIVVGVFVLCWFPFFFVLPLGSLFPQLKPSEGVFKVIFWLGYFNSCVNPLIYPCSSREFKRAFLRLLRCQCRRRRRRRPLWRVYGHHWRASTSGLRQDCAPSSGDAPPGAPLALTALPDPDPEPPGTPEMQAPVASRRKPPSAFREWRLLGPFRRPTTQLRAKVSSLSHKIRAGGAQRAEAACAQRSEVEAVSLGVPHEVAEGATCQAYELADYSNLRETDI

[4] = target: T4, Adrenergic receptor alpha-2 (Rattus norvegicus, UniProt P22086+P19328+P22909); experiment: Binding affinity to alpha2 adrenoceptor in rat cerebral cortex; type: tissue-based
T4 sequence (P22086 whole entry): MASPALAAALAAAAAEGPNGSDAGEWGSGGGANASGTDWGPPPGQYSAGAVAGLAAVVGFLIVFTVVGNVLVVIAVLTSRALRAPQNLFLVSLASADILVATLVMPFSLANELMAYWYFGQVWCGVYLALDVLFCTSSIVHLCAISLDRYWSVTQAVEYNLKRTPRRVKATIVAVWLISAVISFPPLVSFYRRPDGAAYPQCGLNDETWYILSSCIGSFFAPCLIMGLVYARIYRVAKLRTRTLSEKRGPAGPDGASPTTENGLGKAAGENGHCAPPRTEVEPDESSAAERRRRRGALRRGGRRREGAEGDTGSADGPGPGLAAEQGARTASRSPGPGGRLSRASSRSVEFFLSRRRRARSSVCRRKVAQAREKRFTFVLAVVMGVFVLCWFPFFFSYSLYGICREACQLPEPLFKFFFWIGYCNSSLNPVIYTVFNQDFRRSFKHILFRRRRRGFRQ
T4 sequence (P19328 whole entry): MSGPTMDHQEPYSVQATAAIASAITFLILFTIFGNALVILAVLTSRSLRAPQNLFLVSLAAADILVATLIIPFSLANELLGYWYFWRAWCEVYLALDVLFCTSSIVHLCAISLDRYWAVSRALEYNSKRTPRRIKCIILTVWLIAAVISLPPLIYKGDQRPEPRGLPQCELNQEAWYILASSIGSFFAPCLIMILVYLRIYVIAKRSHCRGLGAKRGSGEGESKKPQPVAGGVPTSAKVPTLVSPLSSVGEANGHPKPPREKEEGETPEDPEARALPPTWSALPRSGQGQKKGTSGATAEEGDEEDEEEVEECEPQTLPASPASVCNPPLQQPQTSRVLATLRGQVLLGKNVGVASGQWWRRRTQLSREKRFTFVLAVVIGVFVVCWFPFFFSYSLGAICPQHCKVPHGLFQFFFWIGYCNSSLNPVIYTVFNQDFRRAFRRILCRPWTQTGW
T4 sequence (P22909 whole entry): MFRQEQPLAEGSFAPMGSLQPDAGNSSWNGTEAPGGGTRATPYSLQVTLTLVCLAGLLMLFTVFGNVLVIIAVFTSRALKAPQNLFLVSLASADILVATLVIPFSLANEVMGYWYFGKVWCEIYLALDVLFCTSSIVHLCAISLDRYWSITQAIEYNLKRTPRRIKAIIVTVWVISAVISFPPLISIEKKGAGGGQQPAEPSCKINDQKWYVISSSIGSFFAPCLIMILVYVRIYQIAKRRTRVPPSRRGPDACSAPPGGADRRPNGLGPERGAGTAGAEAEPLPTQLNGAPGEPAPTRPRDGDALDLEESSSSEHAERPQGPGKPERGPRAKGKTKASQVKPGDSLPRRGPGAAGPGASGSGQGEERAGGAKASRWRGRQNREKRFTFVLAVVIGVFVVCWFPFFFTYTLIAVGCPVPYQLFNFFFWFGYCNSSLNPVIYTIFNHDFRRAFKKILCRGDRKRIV

[5] = target: Adrenergic receptor beta (Rattus norvegicus, UniProt P18090+P10608+P26255); experiment: Binding affinity to beta adrenoceptor in rat brain; type: tissue-based
[6] = Selectivity ratio of Ki for human recombinant alpha1D adrenoceptor to Ki for alpha1B adrenoceptor in rat liver membranes; type: cell membranes
[7] = species on record: Rattus norvegicus; experiment: Selectivity ratio of Ki for alpha2 adrenoceptor in rat cerebral cortex to Ki for alpha1B adrenoceptor in rat liver membranes; type: cell membranes
[8] = species on record: Rattus norvegicus; experiment: Selectivity ratio of Ki for beta adrenoceptor in rat brain to Ki for alpha1B adrenoceptor in rat liver membranes; type: cell membranes
[9] = target: T5, Alpha-1B adrenergic receptor (Homo sapiens, UniProt P35368); experiment: Antagonist activity at human alpha1B adrenoceptor assessed as inhibition of norepinephrine-induced increase of intracellular calcium level by cell based assay; type: functional
T5 sequence (P35368 whole entry): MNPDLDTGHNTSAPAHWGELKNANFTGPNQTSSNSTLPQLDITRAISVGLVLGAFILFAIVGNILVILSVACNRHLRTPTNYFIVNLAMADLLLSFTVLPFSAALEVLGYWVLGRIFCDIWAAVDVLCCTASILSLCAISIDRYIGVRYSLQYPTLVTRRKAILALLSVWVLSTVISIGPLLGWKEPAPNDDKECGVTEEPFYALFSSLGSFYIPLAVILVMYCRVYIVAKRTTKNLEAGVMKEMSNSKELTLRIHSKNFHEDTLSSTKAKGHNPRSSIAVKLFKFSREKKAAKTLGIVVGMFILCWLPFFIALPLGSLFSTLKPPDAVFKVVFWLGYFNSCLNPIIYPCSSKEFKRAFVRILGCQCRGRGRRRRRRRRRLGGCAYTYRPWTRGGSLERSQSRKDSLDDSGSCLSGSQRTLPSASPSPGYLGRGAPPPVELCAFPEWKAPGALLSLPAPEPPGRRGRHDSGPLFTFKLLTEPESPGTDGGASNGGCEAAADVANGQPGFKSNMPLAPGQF

Compound	Ki [1]	Ki [2]	also measured
CN(C)CCCN1CCC(c2c[nH]c3ccccc23)CC1	240 nM	4.8 nM	–
c1ccc2c(C3CCNCC3)c[nH]c2c1	3100 nM	440 nM	–
c1ccc2c(C3CCN(CCCC4CCCCC4)CC3)c[nH]c2c1	140 nM	47 nM	–
Fc1ccc2c(C3CCN(CCCN4CCc5ccccc5C4)CC3)c[nH]c2c1	–	–	Ki [3]: 16 nM; Ki [4]: 90 nM; Ki [5]: > 1000 nM; Ratio Ki [6]: 40; Ratio Ki [7]: 40; Ratio Ki [8]: 40; IC50 [9]: 560 nM
c1ccc(CCCN2CCC(c3c[nH]c4ccccc34)CC2)cc1	16 nM	13 nM	–
c1ccc2c(C3CCN(CCCn4cccc4)CC3)c[nH]c2c1	86 nM	11 nM	–
